Patent US20260053932A1, “COMPOUNDS AND METHODS FOR THE TARGETED DEGRADATION OF ANDROGEN RECEPTOR AND ASSOCIATED METHODS OF USE” (Arvinas Operations, Inc., priority 2020, published 2026)

System: androgen receptor (AR) in LNCaP and/or VCaP cells
Experiment: Androgen Receptor ELISA assay (AR degradation)
Type: cell-based
Settings: degradation of AR ELISA in LNCaP and/or VCaP cells; Table 2C; read-out: DC50 Code*
Protocol: Androgen Receptor ELISA Assay. […] The protocols used with VCaP cells are described below.
The cells were grown for a minimum of 3 days.
(2)(i) A 10× stock plate in media was made; (ii) 2.5 μL of the 1000× stock was transferred to a new 10× stock plate (use 12 channel pipet, start at A (DMSO control) work thru H. When 247.5 µL of media was added to this plate, it served as a 10× stock; (iii) made media+1 nM R1881 for making 10× stock plate; (iv) added 247.5 μL of media with 1 nM R1881 to each well of the 10× stock plate, mix.
Then 22 μL of 10× stock was added to cells and incubated for 5 hours. […] Media was aspirated, and 100 μL 1× cell lysis buffer/well was added. The cells were placed on a shaker located in a cold room for 10 minutes and shaken at speed 7. The lysate mixture was mix and 20 μL transferred to 100 μl of Diluent in ELISA plate (0.15 μg/ml-[…]). The lysate-diluent mixture was store at 4° C. overnight on a shaker located in a cold room at speed 5 (gentle swirl).
The lysate-diluent mixture was shaken for 30 minutes at 37° C. The mouse AR antibody, anti-mouse antibody, TMB, and STOP solution were allowed to come to room temperature. The 1×ELISA buffer included in kit was made and loaded in reservoir. Media from the plate was discarded, the ELISA plate was tapped hard on paper towel, and washed 4×200 μl ELISA wash buffer using a plate washer for the first three washes and an eight channel aspirator for the fourth wash to more thoroughly aspirate the solution.
Next, 100 μL/well of mouse AR detection Ab was added; the plate was covered and shaken at 37° C. for 1 hour; media was discarded from the plates, the plates tapped on a paper towel and washed four times with 200 μL ELISA wash buffer with a plate washer for the first three washes and an eight channel aspirator for the fourth wash; 100 μL/well of anti-mouse—HRP conjugated Ab (comes with the kit) was added; the plates was cover and shaken at 37° C. for 30 minutes; the TMB reagent was allowed to come to room temperature; the media from the plate was discarded, the plates tapped on paper towel, and washed four times with 200 μL ELISA wash buffer with a plate washer for the first three washes and an eight channel aspirator for the fourth wash; plates were tapped on paper towel; 100 μL TMB was added to each well and the plate shaken for 2 minutes—while watching color. STOP solution (100 μL) was added when light blue color developed.
Data was analyzed and plotted using GraphPad Prism software. Exemplary compounds of Tables 1A, 1B, and 1C were assayed and the data shown below in Tables 2A, 2B, and 2C. DC50 (nM) categories (degradation of AR ELISA in LNCaP and/or VCaP cells) of Tables 2A, 2B, and 2C are as follows: A<1 nM; 1≤B<10 nM; 10≤C<100 nM; D≥100 nM. Dmax (%) categories (degradation of AR ELISA in LNCaP and/or VCaP cells) of Table 2 are as follows: A≥70; 50≤B<70; C<50

DC50, < 1 nM:
CCN(CC1CCN(c2ccc(C(=O)N[C@H]3C(C)(C)[C@H](Oc4cc(C)c(C#N)c(C)c4)C3(C)C)cc2)CC1)[C@H]1C[C@H](Oc2cc(OC)c3c(c2)C(=O)N(C2CCC(=O)NC2=O)C3=O)C1 (mixture of isomers) [compound 169, rac-N-((1r,3r)-3-(4-cyano-3,5-dimethylphenoxy)-2,2,4,4-tetramethylcyclobutyl)-4-(4-((((1r,3r)-3-((2-(2,6-dioxopiperidin-3-yl)-7-methoxy-1,3-dioxoisoindolin-5-yl)oxy)cyclobutyl) (ethyl)amino)methyl)piperidin-1-yl) benzamide]
COCCN(CC1CCN(c2ccc(C(=O)N[C@H]3C(C)(C)[C@H](Oc4cc(C)c(C#N)c(C)c4)C3(C)C)cc2)CC1)[C@H]1C[C@H](Oc2cc3c(cc2OC)C(=O)N(C2CCC(=O)NC2=O)C3=O)C1 (mixture of isomers) [compound 170, rac-N-((1r,3r)-3-(4-cyano-3,5-dimethylphenoxy)-2,2,4,4-tetramethylcyclobutyl)-4-(4-((((1r,3r)-3-((2-(2,6-dioxopiperidin-3-yl)-6-methoxy-1,3-dioxoisoindolin-5-yl)oxy)cyclobutyl)(2-methoxyethyl)amino)methyl)piperidin-1-yl)benzamide]
CCN(C1CCN(c2ccc(C(=O)N[C@H]3C(C)(C)[C@H](Oc4cc(C)c(C#N)c(C)c4)C3(C)C)cc2)CC1)[C@H]1C[C@H](Oc2ccc3c(c2)C(=O)N(C2CCC(=O)NC2=O)C3=O)C1 (mixture of isomers) [compound 173, rac-N-((1r,3r)-3-(4-cyano-3,5-dimethylphenoxy)-2,2,4,4-tetramethylcyclobutyl)-4-(4-(((1r,3r)-3-((2-(2,6-dioxopiperidin-3-yl)-1,3-dioxoisoindolin-5-yl)oxy)cyclobutyl) (ethyl)amino)piperidin-1-yl)benzamide]
COc1cc(O[C@H]2C(C)(C)[C@H](NC(=O)c3ccc(N4CC(CN(C(C)C)[C@H]5C[C@H](Oc6ccc7c(c6)C(=O)N(C6CCC(=O)NC6=O)C7=O)C5)C4)cc3)C2(C)C)ccc1C#N (mixture of isomers) [compound 176, rac-N-((1r,3r)-3-(4-cyano-3-methoxyphenoxy)-2,2,4,4-tetramethylcyclobutyl)-4-(3-((((1r,3r)-3-((2-(2,6-dioxopiperidin-3-yl)-1,3-dioxoisoindolin-5-yl)oxy)cyclobutyl) (isopropyl)amino)methyl)azetidin-1-yl)benzamide]
COc1cc(O[C@H]2C(C)(C)[C@H](NC(=O)c3cnc(N4CCC(CN(C(C)C)[C@H]5C[C@H](Oc6cccc7c6CN(C6CCC(=O)NC6=O)C7=O)C5)CC4)cn3)C2(C)C)ccc1C#N (mixture of isomers) [compound 177, rac-N-((1r,3r)-3-(4-cyano-3-methoxyphenoxy)-2,2,4,4-tetramethylcyclobutyl)-5-(4-((((1r,3r)-3-((2-(2,6-dioxopiperidin-3-yl)-1-oxoisoindolin-4-yl)oxy)cyclobutyl) (isopropyl)amino)methyl)piperidin-1-yl)pyrazine-2-carboxamide]
Cc1cc(O[C@H]2C(C)(C)[C@H](NC(=O)c3ccc(N4CCC(O[C@H]5C[C@H](Oc6ccc7c(c6)C(=O)N(C6CCC(=O)NC6=O)C7=O)C5)CC4)cc3)C2(C)C)cc(C)c1C#N (mixture of isomers) [compound 178, N-((1r,3r)-3-(4-cyano-3,5-dimethylphenoxy)-2,2,4,4-tetramethylcyclobutyl)-4-(4-((1r,3r)-3-((2-(2,6-dioxopiperidin-3-yl)-1,3-dioxoisoindolin-5-yl)oxy)cyclobutoxy)piperidin-1-yl)benzamide]
[2H]C([2H])([2H])OCCN(CC1CCN(c2ccc(C(=O)N[C@H]3C(C)(C)[C@H](Oc4cc(C)c(C#N)c(C)c4)C3(C)C)cc2)CC1)[C@H]1C[C@H](Oc2cc(OC([2H])([2H])[2H])c3c(c2)C(=O)N(C2CCC(=O)NC2=O)C3=O)C1 (mixture of isomers) [compound 181, rac-N-((1r,3r)-3-(4-cyano-3,5-dimethylphenoxy)-2,2,4,4-tetramethylcyclobutyl)-4-(4-((((1r,3r)-3-((2-(2,6-dioxopiperidin-3-yl)-7-(methoxy-d3)-1,3-dioxoisoindolin-5-yl)oxy)cyclobutyl)(2-(methoxy-d3)ethyl)amino)methyl)piperidin-1-yl)benzamide]
Cc1cc(O[C@H]2C(C)(C)[C@H](NC(=O)c3ccc(N4CCC5(CC4)CN(CCOc4ccc6c(c4)C(=O)N(C4CCC(=O)NC4=O)C6=O)CCO5)cc3)C2(C)C)cc(C)c1C#N (mixture of isomers) [compound 182, rac-N-((1r,3r)-3-(4-cyano-3,5-dimethylphenoxy)-2,2,4,4-tetramethylcyclobutyl)-4-(4-(2-((2-(2,6-dioxopiperidin-3-yl)-1,3-dioxoisoindolin-5-yl)oxy)ethyl)-1-oxa-4,9-diazaspiro[5.5]undecan-9-yl)benzamide]
Cc1cc(O[C@H]2C(C)(C)[C@H](NC(=O)c3cnc(N4CCC(CN(C(C)C)[C@H]5C[C@H](Oc6cccc7c6CN(C6CCC(=O)NC6=O)C7=O)C5)CC4)cn3)C2(C)C)cc(C)c1C#N (mixture of isomers) [compound 185, rac-N-((1r,3r)-3-(4-cyano-3,5-dimethylphenoxy)-2,2,4,4-tetramethylcyclobutyl)-5-(4-((((1r,3r)-3-((2-(2,6-dioxopiperidin-3-yl)-1-oxoisoindolin-4-yl)oxy)cyclobutyl) (isopropyl)amino)methyl)piperidin-1-yl)pyrazine-2-carboxamide]
Cc1cc(O[C@H]2C(C)(C)[C@H](NC(=O)c3ccc(N4CCC(CN(C)[C@H]5C[C@H](Oc6ccc7c(c6)C(=O)N(C6CCC(=O)NC6=O)C7=O)C5)CC4)cc3)C2(C)C)cc(C)c1C#N (mixture of isomers) [compound 186, rac-N-((1r,3r)-3-(4-cyano-3,5-dimethylphenoxy)-2,2,4,4-tetramethylcyclobutyl)-4-(4-((((1r,3r)-3-((2-(2,6-dioxopiperidin-3-yl)-1,3-dioxoisoindolin-5-yl)oxy)cyclobutyl) (methyl)amino)methyl)piperidin-1-yl)benzamide]
Cc1cc(O[C@H]2C(C)(C)[C@H](NC(=O)c3ccc(N4CCC(CN(CCN5CCOCC5)[C@H]5C[C@H](Oc6ccc7c(c6)C(=O)N(C6CCC(=O)NC6=O)C7=O)C5)CC4)cc3)C2(C)C)cc(C)c1C#N (mixture of isomers) [compound 188, rac-N-((1r,3r)-3-(4-cyano-3,5-dimethylphenoxy)-2,2,4,4-tetramethylcyclobutyl)-4-(4-((((1r,3r)-3-((2-(2,6-dioxopiperidin-3-yl)-1,3-dioxoisoindolin-5-yl)oxy)cyclobutyl)(2-morpholinoethyl)amino)methyl)piperidin-1-yl)benzamide]
COc1cc(O[C@H]2C[C@H](N(C)C3CCN(c4ccc(C(=O)N[C@H]5C(C)(C)[C@H](Oc6cc(C)c(C#N)c(C)c6)C5(C)C)cc4)CC3)C2)cc2c1C(=O)N(C1CCC(=O)NC1=O)C2=O (mixture of isomers) [compound 189, rac-N-((1r,3r)-3-(4-cyano-3,5-dimethylphenoxy)-2,2,4,4-tetramethylcyclobutyl)-4-(4-(((1r,3r)-3-((2-(2,6-dioxopiperidin-3-yl)-7-methoxy-1,3-dioxoisoindolin-5-yl)oxy)cyclobutyl) (methyl)amino)piperidin-1-yl)benzamide]
COCCN(CC1CC2(C1)CN(c1ccc(C(=O)N[C@H]3C(C)(C)[C@H](Oc4ccc(C#N)c(OC)c4)C3(C)C)cc1)C2)[C@H]1C[C@H](Oc2ccc3c(c2)C(=O)N(C2CCC(=O)NC2=O)C3=O)C1 (mixture of isomers) [compound 190, rac-N-((1r,3r)-3-(4-cyano-3-methoxyphenoxy)-2,2,4,4-tetramethylcyclobutyl)-4-(6-((((1r,3r)-3-((2-(2,6-dioxopiperidin-3-yl)-1,3-dioxoisoindolin-5-yl)oxy)cyclobutyl)(2-methoxyethyl)amino)methyl)-2-azaspiro[3.3]heptan-2-yl)benzamide]
